Measurements: patent US11993785B2, “Immersion deposition methods and compositions for use in the same” (Wake Forest University Health Sciences, priority 2018, dated 2024)

System: primary sarcoma organoids
Assay: CELLTITER-GLO 3D ATP assay of drug treated primary sarcoma organoids
Format: cell-based
Details: 3 days, after 7 days organoid culture
Procedure: The organoids were made using an immersion printing technique using a gelatin composition having a gelatin concentration of 10 mg/mL. To prepare the gelatin composition, gelatin was allowed to completely dissolve, and then the composition was cooled at 4° C. prior to use. The organoids were printed with a new bioprinter, BIO X™ available from CELLINK®, using a new type of printhead, a syringe pump printhead.
The resulting organoids were cultured for 7 days, and then subjected to various drug conditions in culture for 3 more days. Table 1 details the drug and concentration added to the standard culture media (high glucose DMEM supplemented with 10% fetal bovine serum, 1% L-glutamine, 1% penicillin/streptomycin). The organoids were then measured for viability using the CELLTITER-GLO® 3D ATP assay to measure ATP content via luminescence. The resulting signals, shown in FIG. 5, show a trend of organoid viability decreasing as drug concentration increased. Live/dead imaging corroborates the findings of the ATP assay.

Row | Compound | AVG Signal (lum), ATP assay (1 nM drug in culture media) | AVG Signal (lum), ATP assay (100 nM drug in culture media) | AVG Signal (lum), ATP assay (10 μM drug in culture media) | AVG Signal (lum), ATP assay (5 μM drug in culture media) | AVG Signal (lum), ATP assay (50 μM drug in culture media) | AVG Signal (lum), ATP assay (500 μM drug in culture media)
1 | COc1cccc2c1C(=O)c1c(O)c3c(c(O)c1C2=O)C[C@@](O)(C(=O)CO)C[C@@H]3O[C@H]1C[C@H](N)[C@H](O)[C@H](C)O1 [Doxorubicin] | 5.13E+06 lum | 2.62E+06 lum | 1.12E+06 lum | – | – | –
2 | Cc1ccc(NC(=O)c2ccc(CN3CCN(C)CC3)cc2)cc1Nc1nccc(-c2cccnc2)n1 [Imatinib] | – | – | – | 9.16E+06 lum | 6.56E+06 lum | 1.88E+04 lum
